Here are results for seven compounds from BindingDB's records for doi:10.1016/s0960-894x(00)00023-8 (Dupont Pharmaceuticals, 2000).

Structures can show the parent of a compound that is named as a salt.

One experiment in a line: Inhibition of platelet aggregation in human platelet rich plasma (hPRP).
Compound `N=C(N)c1ccc(C2=NOC(CC(=O)N3CCCC(C(=O)O)C3)C2)cc1` (configuration not stated) [1-{2-[3-(4-Carbamimidoyl-phenyl)-4,5-dihydro-isoxazol-5-yl]-acetyl}-piperidine-3-carboxylic acid; TFA] returned an IC50 of 5200 nM.

Consider `N=C(N)c1ccc(C2=NOC(CC(=O)N3CCC(=O)C(C(=O)O)C3)C2)cc1` (configuration not stated) [1-{2-[3-(4-Carbamimidoyl-phenyl)-4,5-dihydro-isoxazol-5-yl]-acetyl}-4-oxo-piperidine-3-carboxylic acid; TFA], for which the IC50 amounted to 6400 nM.

As to `N=C(N)c1ccc(C2=NOC(CC(=O)N3CCCC3CC(=O)O)C2)cc1` (configuration not stated) [(1-{2-[3-(4-Carbamimidoyl-phenyl)-4,5-dihydro-isoxazol-5-yl]-acetyl}-pyrrolidin-2-yl)-acetic acid; TFA], the IC50 came to 1100 nM. The same measure, in the same setting: the value for `N=C(N)c1ccc(C2=NOC(CC(=O)N3CCCCCC3CC(=O)O)C2)cc1` (configuration not stated) [(1-{2-[3-(4-Carbamimidoyl-phenyl)-4,5-dihydro-isoxazol-5-yl]-acetyl}-azepan-2-yl)-acetic acid; TFA] was 3700 nM. `N=C(N)c1ccc(C2=NOC(CC(=O)N3CCCCC3CC(=O)O)C2)cc1` (configuration not stated) [(1-{2-[3-(4-Carbamimidoyl-phenyl)-4,5-dihydro-isoxazol-5-yl]-acetyl}-piperidin-2-yl)-acetic acid; TFA] displayed a half-maximal inhibitory concentration (IC50) of 280 nM.

Turning to `N=C(N)c1ccc(C2=NOC(CC(=O)N3CCC(C(=O)O)CC3)C2)cc1` (configuration not stated) [1-{2-[3-(4-Carbamimidoyl-phenyl)-4,5-dihydro-isoxazol-5-yl]-acetyl}-piperidine-4-carboxylic acid; TFA], the IC50 came to 2500 nM.

Test in another experiment: as above
This is another data set of the same source.
As for `N=C(N)c1ccc(C2=NOC(CC(=O)NCCC(=O)O)C2)cc1` (configuration not stated), the half-inhibitory concentration (IC50) stood at 60 nM.
